Data on 6 compounds can be found in patent US9227982B2 (NOVARTIS AG, priority 2011, dated 2016).

For assay [1], the system named is Non-small lung cancer ABC-1 cells. The assay can be described thus: Cellular proliferation assay (CellTiter-Glo) in ABC-1 cells. It counts as cell-based. As to conditions: Homo sapiens, 72 h, 3 days of compound treatment. The protocol: Cellular Proliferation Assay to Determine Compound Inhibition of Cancer Cell Growth
Non-small lung cancer ABC-1 cells were plated at 5000 cells per well in 96-well plates and treated with 8 serial compound dilutions starting from 10 μM as the highest concentration. Viable cells were measured after 3 days of compound treatment using the CellTiter-Glo assay (Promega, G7570). Assay was performed following the manufacture protocol.
(In general: Cellular ATP, detected with luciferase, serves as a proxy for viable cell number.)

Assay [2] deals with human tankyrase 1 PARP catalytic domain, TNKS1P (Homo sapiens (Human), UniProt O95271). Kind of assay: TNKS1 autoparsylation enzymatic assay (LC/MS detection of nicotinamide). The format is biochemical. As to conditions: 20 nM enzyme, 250 μM β-NAD+, 60 min, read-out: TNKS1 AP IC50. The source says: (§1) The human tankyrase 1 PARP catalytic domain, TNKS1P, was cloned into a pDONR221 vector using the Invitrogen Gateway Technology. This entry clone was then subcloned into the destination vector pDEST20 to obtain the N-terminal Glutathione S-transferase (GST)-tagged fusion protein. GST-TNKS1P was then expressed in Sf21 cells using the Invitrogen baculovirus expression system (Invitrogen-Bac-to-Bac® Baculovirus Expression System, Version D). The protein was purified by a GSTrap column (GE Healthcare). The N-terminal GST-tagged tankyrase 2 protein PARP domain, TNKS2P, was cloned, expressed, and purified in a similar manner. Human PARP1 (Cat. No. 4668-100-01) and activated DNA (Cat. No. 4671-096-06) were purchased from Trevigen, Inc. PARP2 (Cat. No. ALX-201-064-C020) was purchased from Alexis Biochemical.
Sequence of human tankyrase 1 PARP catalytic domain, TNKS1P (O95271 1112-1317): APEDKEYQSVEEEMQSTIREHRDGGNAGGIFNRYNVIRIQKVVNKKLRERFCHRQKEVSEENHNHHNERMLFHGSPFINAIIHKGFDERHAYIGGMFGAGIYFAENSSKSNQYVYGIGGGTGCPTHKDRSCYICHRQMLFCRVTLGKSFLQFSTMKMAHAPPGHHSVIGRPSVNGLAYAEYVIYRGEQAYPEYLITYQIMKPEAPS
The % Inhibition was calculated as: (Control−Sample)/(Control−Background)*100. “Control” is the average value of 8 wells without compound; and “Background” is the average of 8 wells mixed with 5× quenching solution measured prior to initiation of the reaction.

The subject of another assay is Axin2 protein. The assay can be described thus: Cellular ELISA assay of Axin2 protein stabilization in SW480 cells. It counts as cell-based. Conditions: Homo sapiens, 24 hrs treatment, read-out: Axin AC50. The protocol:
Cellular ELISA Assay to Determine Compound Effect on Stabilizing the Axin2 Protein
Compound activity in stabilizing the Axin2 protein was measured by Sandwich Enzyme-Linked Immuosorbent (ELISA) assay in the colorectal cell line SW480. 30,000 SW480 cells were seeded per well in 96-well plate and incubated overnight prior to compound treatment. Cells were then treated with compounds in 6-point dilution starting at 10 μM for 24 hrs. Cells were then washed with 100 μL of cold Phosphate Buffer Saline (PBS), and lysed in 125 μl of cold 1× lysis buffer (Cell Signaling Technology, 9803) supplemented with Protease inhibitor (Roche, 11836170) and Phosphatase inhibitors (Sigma, P2850, P5726). For the ELISA assay, anti Axin-2 capture antibody (Strategic Diagnostics) antibody was diluted to a concentration of 1 μg/ml (1:1000) in Carbonate Coating buffer, pH 9.2 (Sigma, C3041-50CAP). 100μ of the diluted anti Axin-2 capture antibody per well was then used to coat the 96-well ELISA plate (Thermo Electron Corp., MicroLite 1 flat bottom plate #7571) overnight at 4° C. Plates were then washed three times with 300 of wash solution, PBST20 (PBS+0.05% Tween), and blocked with 300 μl/well 1% BSA/PBS (BSA, Millipore Probumin #82-045-1) for 1.5 hours at room temperature while shaking gently. After blocking, plates were then washed three times with 300 of wash solution. 100 μL of prepared SW480 cell lysate was then added to each well and incubated at room temperature for 2 hours while shaking gently. After washing, 100 μL of Biotinylated anti-Axin2 antibody (CST, 2151) was added to each well and incubated room temperature for 2 hours. 100 μL of Streptavidin-HRP (R&D systems, DY998) diluted 1:200 in 1% BSA/PBS was then added in each well and incubate for 30 mins at R/T in the dark.

In another assay the target is PARP2 (Mus musculus (Mouse), UniProt O88554). Kind of assay: PARP2 autoparsylation enzymatic assay (LC/MS detection of nicotinamide). It counts as biochemical. As to conditions: 20 nM enzyme, 250 μM β-NAD+, 60 min.
Sequence of PARP2 (O88554 whole entry): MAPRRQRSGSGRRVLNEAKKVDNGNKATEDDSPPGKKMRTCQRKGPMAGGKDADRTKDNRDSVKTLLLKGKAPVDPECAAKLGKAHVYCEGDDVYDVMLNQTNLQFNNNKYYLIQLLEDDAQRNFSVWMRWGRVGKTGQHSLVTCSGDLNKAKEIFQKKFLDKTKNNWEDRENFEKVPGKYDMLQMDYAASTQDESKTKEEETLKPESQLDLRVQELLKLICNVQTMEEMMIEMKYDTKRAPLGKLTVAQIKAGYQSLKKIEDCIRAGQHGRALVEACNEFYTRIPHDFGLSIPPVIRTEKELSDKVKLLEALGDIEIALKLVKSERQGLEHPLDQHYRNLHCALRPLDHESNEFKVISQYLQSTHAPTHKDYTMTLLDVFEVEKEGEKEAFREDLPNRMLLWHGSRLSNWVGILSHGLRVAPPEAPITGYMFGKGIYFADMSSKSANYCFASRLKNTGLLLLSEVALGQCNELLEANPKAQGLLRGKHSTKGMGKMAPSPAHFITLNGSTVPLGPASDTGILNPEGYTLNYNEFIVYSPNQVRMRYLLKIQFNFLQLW
Text: as §1, with “manner.” for “manner. Human PARP1 (Cat. No. 4668-100-01) and activated DNA (Cat. No. 4671-096-06) were purchased from Trevigen, Inc. PARP2 (Cat. No. ALX-201-064-C020) was purchased from Alexis Biochemical.”
The autoparsylation activity of the TNKS 1/2 or PARP1/2 enzymes was measured by the liquid chromatography-mass spectrometry (LC/MS) detection of nicotinamide as readout. Compound activity in inhibiting the TNKS and PARP autoparsylation was evaluated by IC50 measurements. […] For the background control wells, 10 μL of the 5× quenching solution per well was added prior to the addition of β-NAD^+. The % Inhibition was calculated as: (Control−Sample)/(Control−Background)*100.

Assay [3] relates to Herpes Simplex Virus (HSV). Conditions: cited from earlier work.

For `O=C(CCc1ccccc1)N(Cc1nc2c(c(=O)[nH]1)COCC2)Cc1cccs1` [Example 1], the IC50 (commonly the point on the concentration scale where inhibition reaches its midpoint) in assay [1] was greater than 10 µM; in assay [2] it was 1.15 ± 0.02 µM. For the same compound, the AC50 (as a rule, the concentration giving half of the maximal activity seen) in the assay with Axin2 protein is greater than 10 µM.
`O=C(CCc1ccccc1F)N(Cc1nc2c(c(=O)[nH]1)COCC2)Cc1cccs1` [Example 4, 3-(2-Fluoro-phenyl)-N-(4-oxo-3,5,7,8-tetrahydro-4H-pyrano[4,3-d]pyrimidin-2-ylmethyl)-N-thiophen-2-ylmethyl-propionamide]: the IC50 was determined as 8.74 µM in assay [1] and 0.271 ± 0.045 µM in assay [2]. Besides, in the assay with Axin2 protein, the AC50 came out at 4.1 ± 2.1 µM.
“N-((4-0xo-4,5,7,8-tetrahydro-3H-pyrano[4,3-d]pyrimidin-2-yl)methyl)-3-phenyl-N-(thiophen-3-ylmethyl)propanamide [Example 18]”: the IC50 turned out to be 5.17 ± 0.46 µM in assay [2] and 10.4 ± 0.8 µM against PARP2.
Regarding `O=C(CCc1cccc(O)c1)N(Cc1nc2c(c(=O)[nH]1)COCC2)Cc1cccs1` [Example 7, 3-(3-Hydroxy-phenyl)-N-(4-oxo-3,5,7,8-tetrahydro-4H-pyrano[4,3-d]pyrimidin-2-ylmethyl)-N-thiophen-2-ylmethyl-propionamide], the half-maximal inhibitory concentration (IC50) is greater than 10 µM in assay [1] and 1.02 ± 0.003 µM in assay [2]. Besides, the AC50 with Axin2 protein was greater than 10 µM.
Regarding `Oc1nc(-c2ccc(C(F)(F)F)cc2)nc2c1CSCC2` [XAV939], in assay [3], the HSV viral growth entry is “decreased viral growth” and the “HSV viral protein expression” value was “suppressed HSV viral protein expression”.
As to `O=C(CCc1ccc(F)cc1)N(Cc1nc2c(c(=O)[nH]1)COCC2)Cc1cccs1` [Example 2, 3-(4-Fluoro-phenyl)-N-(4-oxo-3,5,7,8-tetrahydro-4H-pyrano[4,3-d]pyrimidin-2-ylmethyl)-N-thiophen-2-ylmethyl-propionamide], the IC50 in assay [1] was greater than 10 µM; in assay [2] it was 0.299 ± 0.026 µM. The AC50 in the assay with Axin2 protein was determined as 8.2 ± 0.3 µM.
